Blank lines part the entries; values can stand above or below the compound they belong to.
Assay: solvent given as SMILES

absorption maximum (in C1CCOC1): 612 nm
absorption maximum (in CS(C)=O): 622 nm
absorption maximum (in ClCCl): 606 nm
SMILES: COc1cc(OC)cc(C2=C3C(C)=C(I)C(C)=[N+]3[B-](F)(F)n3c(/C=C/c4c[nH]c5ccc([N+](=O)[O-])cc45)c(I)c(C)c32)c1

absorption maximum (in ClCCl): 475 nm
SMILES: F[B-]1(F)OC(c2ccccc2)=Cc2cc3[n+](c[n+]21)[B-](F)(F)OC(c1ccccc1)=C3

absorption maximum (in CS(C)=O): 316 nm
SMILES: COc1cc2sc3cc(OC)c(F)cc3c(=O)c2cc1F

absorption maximum (in CCO): 547 nm
absorption maximum (in O): 548 nm
SMILES: CN(C)c1ccc2cc3ccc(=[N+](C)C)cc-3oc2c1

absorption maximum (in C1CCCCC1): 570.5 nm
absorption maximum (in CCOC(C)=O): 575 nm
SMILES: CC1=[N+]2C(=C(Oc3cc(C)c4c(c3)CC[C@@](C)(CCC[C@H](C)CCC[C@H](C)CCCC(C)C)O4)c3ccc(C)n3[B-]2(F)F)C=C1c1cc2n(c1)[B-](F)(F)[N+]1=CC=CC1=C2c1c(C)cc(C)cc1C

absorption maximum (in C1CCOC1): 405 nm
absorption maximum (in CC#N): 397 nm
absorption maximum (in CCO): 404 nm
absorption maximum (in CCOC(C)=O): 403 nm
absorption maximum (in ClCCl): 404 nm
absorption maximum (in c1ccccc1): 407 nm
SMILES: CC1(C)CC(/C=C/c2ccc(-n3cccn3)cc2)=CC(=C(C#N)C#N)C1

absorption maximum (in CCO): 630 nm
absorption maximum (in CS(C)=O): 485 nm
absorption maximum (in O): 573 nm
SMILES: CC1(C)C(/C=C/c2cc3ccc(O)cc3oc2=O)=[N+](CCCS(=O)(=O)[O-])c2ccc(S(=O)(=O)O)cc21

absorption maximum (in ClC(Cl)Cl): 662 nm
SMILES: COc1ccc(-c2c(-c3ccc(C)cc3)c3n(c2-c2ccc(C)cc2)[B-](F)(F)[N+]2=C(c4ccc(C)cc4)C(/C=C/C(=O)OC4CC[C@@]5(C)C(=CC[C@H]6[C@@H]7CC[C@H]([C@H](C)CCCC(C)C)[C@@]7(C)CC[C@@H]65)C4)=C(c4ccc(C)cc4)C2=N3)cc1 (stereo partly drawn)

absorption maximum (in C1CCOC1): 369 nm
absorption maximum (in CC#N): 369 nm
absorption maximum (in CS(C)=O): 380 nm
absorption maximum (in ClCCl): 365 nm
SMILES: CN(C)c1ccc(/C=C/c2cccnn2)cc1

absorption maximum (in ClCCl): 385 nm
SMILES: CCCCC(CC)Cn1c2cc(C#N)ccc2c2ccc(C#Cc3ccc4ccc5c(C#Cc6ccc7c8ccc(C#N)cc8n(CC(CC)CCCC)c7c6)ccc6ccc3c4c65)cc21 (stereo not drawn)

absorption maximum (in CC#N): 403 nm
SMILES: Oc1ccccc1/C=N/c1cc2nc3ccccc3nc2cc1/N=C/c1ccccc1O

absorption maximum (in CS(C)=O): 388 nm
absorption maximum (in ClCCl): 385 nm
SMILES: O=c1oc2ccccc2c2c1c(=O)oc1cc(O)cc(O)c12

absorption maximum (in CS(C)=O): 556 nm
SMILES: C[N+]1=C(/C=C/C=C2/N(CCC[N+](C)(C)C)c3ccc(S(=O)(=O)[O-])cc3C2(C)C)C(C)(C)c2ccccc21

absorption maximum (in CC#N): 350 nm
SMILES: N#Cc1nn(-c2cc(F)cc(F)c2)nc1N1CCCC1

absorption maximum (in ClCCl): 609 nm
SMILES: CC1=CC(C)=[N+]2C1=Cc1c3ccccc3c(-c3[nH]c(C)cc3C)n1[B-]2(F)F

absorption maximum (in C1CCOC1): 340 nm
SMILES: COc1ccc(-c2cc3ccccc3p2-c2ccccc2)cc1 (stereo not drawn)

absorption maximum (in CC#N): 305 nm
SMILES: Fc1nc(F)c(F)c(C#Cc2nccnc2C#Cc2c(F)c(F)nc(F)c2F)c1F

absorption maximum (in CS(C)=O): 376 nm
SMILES: Cc1ccc(N/C=C/C=[NH+]c2ccc(C)cc2)cc1

absorption maximum (in ClCCl): 533 nm
SMILES: F[B-]1(F)N2C=CN=CC2=[N+]2[N+]1=Cc1c(-c3ccccc3)cc(-c3cccs3)n1[B-]2(F)F

absorption maximum (in CC#N): 305 nm
absorption maximum (in CCCCCC): 375 nm
absorption maximum (in CO): 356 nm
absorption maximum (in ClC(Cl)Cl): 394 nm
SMILES: c1ccc2cc3cc(-c4cc(-c5nccs5)nc(-c5nccs5)c4)ccc3cc2c1

absorption maximum (in CO): 457 nm
SMILES: C(=C\c1cc[n+]2ccc(/C=C/c3cc[nH]c3)cc2c1)/c1cc[nH]c1

absorption maximum (in ClC(Cl)Cl): 385 nm
SMILES: N#Cc1ccc(-c2cc(-c3ccc(N4CCCC4)cc3)nc(-c3ccccc3)n2)cc1

absorption maximum (in CO): 302 nm
absorption maximum (in O): 313 nm
SMILES: O=[N+]([O-])c1ccco1

absorption maximum (in C1CCCCC1): 294 nm
SMILES: CCCC[Si](C)(C)c1cccc2ccccc12

absorption maximum (in C1CCCCC1): 395 nm
absorption maximum (in C1CCOC1): 395 nm
absorption maximum (in CC#N): 396 nm
absorption maximum (in CO): 398 nm
absorption maximum (in CS(C)=O): 398 nm
absorption maximum (in ClCCl): 396 nm
absorption maximum (in O): 346 nm
SMILES: CC1=N/C(=C\c2ccccc2N(C)C)C(=O)N1C

absorption maximum (in ClCCl): 323 nm
SMILES: CCOC(=O)c1c(-c2cc3ccccc3oc2=O)nn(-c2ccccc2)c1C(=O)OCC

absorption maximum (in C1CCOC1): 409 nm
absorption maximum (in CC#N): 405 nm
absorption maximum (in CO): 360 nm
absorption maximum (in ClCCl): 406 nm
SMILES: CCc1s[c+](N2CCCCC2)sc1-c1cc(C)cc(I)c1[O-]

absorption maximum (in ClCCl): 370 nm
SMILES: COc1ccc(/C=C/c2cc(/C=C/c3ccc(OC)cc3)nc(/C=C/c3ccc(N(C)C)cc3)n2)cc1

absorption maximum (in ClCCl): 363 nm
SMILES: Cc1cc(C)c(-c2cc(-c3c(C)cc(C)cc3C)c3ccc4c(-c5c(C)cc(C)cc5C)cc(-c5c(C)cc(C)cc5C)c5ccc2c3c54)c(C)c1

absorption maximum (in CO): 370 nm
SMILES: Cc1cc(C)c(B(c2cc(-c3c(C)cc(C)cc3C)sc2-c2sc(-c3c(C)cc(C)cc3C)cc2P(=O)(c2ccccc2)c2ccccc2)c2c(C)cc(C)cc2C)c(C)c1

Further lines, the compound ahead of its results:

SMILES: N#C[Se]CCCCCOc1ccc2ccc(=O)oc2c1
absorption maximum (in C1CCCCC1): 321 nm
absorption maximum (in C1CCOC1): 322 nm
absorption maximum (in C1COCCO1): 319 nm
absorption maximum (in CC#N): 321 nm
absorption maximum (in CCCCCCC): 319 nm
absorption maximum (in CCO): 323 nm
absorption maximum (in CN(C)C=O): 322 nm
absorption maximum (in CO): 322 nm
absorption maximum (in O): 324 nm
absorption maximum (in OCCO): 326 nm

SMILES: CC(=O)O[B-]1(OC(C)=O)OC(/C=C/c2ccc(C)cc2)=CC(/C=C/c2ccc(C)cc2)=[O+]1
absorption maximum (in C1CCOC1): 434 nm
absorption maximum (in CC#N): 434 nm
absorption maximum (in CC(C)=O): 434 nm
absorption maximum (in CS(C)=O): 442 nm
absorption maximum (in Cc1ccccc1): 436 nm
absorption maximum (in ClC(Cl)Cl): 440 nm
absorption maximum (in ClCCl): 440 nm

SMILES: O=C1c2ccc3c4ccc5c6c(ccc(c7ccc(c2c37)C(=O)N1c1ccncc1)c64)C(=O)N(c1ccncc1)C5=O
absorption maximum (in C1CCOC1): 522 nm
absorption maximum (in C1COCCO1): 525 nm
absorption maximum (in CC(C)=O): 519 nm
absorption maximum (in CC(C)O): 525 nm
absorption maximum (in CCCCO): 525 nm
absorption maximum (in CCO): 524 nm
absorption maximum (in CCOC(C)=O): 519 nm
absorption maximum (in CN(C)C=O): 524 nm
absorption maximum (in CO): 525 nm
absorption maximum (in CS(C)=O): 528 nm
absorption maximum (in ClC(Cl)(Cl)Cl): 524 nm
absorption maximum (in ClC(Cl)Cl): 530 nm

SMILES: CC(C)(C)c1ccc2c(c1)c1cc(C(C)(C)C)cc3c1n2-c1cc(-c2cccc(F)c2)cc2c1B3c1cc(C(C)(C)C)cc3c4cc(C(C)(C)C)ccc4n-2c13
absorption maximum (in Cc1ccccc1): 467.1 nm

SMILES: N#CCc1ccccc1-c1cc2ccccc2oc1=O
absorption maximum (in ClC(Cl)Cl): 318 nm

SMILES: Clc1ccc(N2c3sc4ccccc4c3Sc3c2sc2ccccc32)cc1
absorption maximum (in ClCCl): 418 nm

SMILES: COc1ccc(C2=[N+]3C(=Nc4c5c6cc(OC)c(OC)c(OC)c6c6cc(C(C)(C)C)ccc6c5c(-c5ccc(OC)cc5)n4[B-]3(F)F)c3c2c2ccc(C(C)(C)C)cc2c2c(OC)c(OC)c(OC)cc32)cc1
absorption maximum (in Cc1ccccc1): 745 nm

SMILES: CCCCCc1c(C(=O)c2ccc3c4c(cccc24)-c2cccc4c2C3CC=C4)c2ccc3cccc4c5cccc6ccc1c(c65)c2c34 (stereo not drawn)
absorption maximum (in ClCCl): 470 nm

SMILES: CNC(=O)[C@H](C)NC(=O)c1cccc2c1C#Cc1c(N)cccc1OCCCO2
absorption maximum (in CC#N): 347 nm
absorption maximum (in ClCCl): 345 nm

SMILES: Cc1cc(C)c(C2=[N+]3C(=Cc4c(C)cc(C)n4[B-]3(F)F)c3ccccc32)[nH]1
absorption maximum (in C1CCOC1): 609 nm
absorption maximum (in CC#N): 601 nm
absorption maximum (in CCCCCC): 610 nm
absorption maximum (in CO): 603 nm
absorption maximum (in Cc1ccccc1): 616 nm
absorption maximum (in ClCCl): 609 nm

SMILES: N#C/C(=C\c1cn(-c2ccccc2)nc1-c1ccc([N+](=O)[O-])cc1)c1nc2ccccc2s1
absorption maximum (in C1CCOC1): 378 nm
absorption maximum (in C1COCCO1): 379 nm
absorption maximum (in CCOC(C)=O): 375 nm
absorption maximum (in CN(C)C=O): 376 nm
absorption maximum (in CS(C)=O): 375 nm
absorption maximum (in Cc1ccccc1): 383 nm
absorption maximum (in ClC(Cl)Cl): 382 nm

SMILES: Oc1cc(-c2ccco2)ccc1-c1nc2ccccc2s1
absorption maximum (in ClCCl): 361 nm
absorption maximum (in O): 354 nm

SMILES: CCCSC1=[N+]2C(=C(c3ccccc3)c3ccc(SCCC)n3[B-]2(F)F)C=C1
absorption maximum (in CC#N): 574 nm
absorption maximum (in CCCCCC): 577 nm
absorption maximum (in CCOC(C)=O): 575 nm
absorption maximum (in CO): 574 nm
absorption maximum (in ClCCl): 579 nm

SMILES: c1ccc(-c2ccc3c(c2)c2cc(-c4ccccc4)ccc2n3-c2ccc3c(c2)c2cc(-n4c5ccc(-c6ccccc6)cc5c5cc(-c6ccccc6)ccc54)ccc2n3-c2ccc(-c3nc(-c4ccccc4)nc(-c4ccccc4)n3)cc2)cc1
absorption maximum (in Cc1ccccc1): 362 nm

SMILES: CC1(C)C(/C=C/C=C/C=C/C=C2/N(CCC(=O)O)c3ccc4ccccc4c3C2(C)C)=[N+](CCC(=O)O)c2ccc3ccccc3c21
absorption maximum (in CO): 792 nm

SMILES: CC(C)[Si](C#Cc1c2ccccc2c(C#Cc2c3ccccc3c(C#Cc3c4ccccc4c(C#Cc4c5ccccc5c(C#Cc5c6ccccc6c(C#Cc6c7ccccc7c(C#C[Si](C(C)C)(C(C)C)C(C)C)c7ccccc67)c6ccccc56)c5ccccc45)c4ccccc34)c3ccccc23)c2ccccc12)(C(C)C)C(C)C
absorption maximum (in Cc1ccccc1): 589 nm

SMILES: N#Cc1cc(N2c3ccccc3Oc3ccccc32)c(N2c3ccccc3Oc3ccccc32)cc1C#N
absorption maximum (in c1ccc2c(c1)c1ccccc1n2-c1ccc(-c2ccc(-n3c4ccccc4c4ccccc43)cc2)cc1): 540 nm

SMILES: C(=C\c1c[nH]c2ccccc12)/c1cc[n+]2ccc(/C=C/c3c[nH]c4ccccc34)cc2c1
absorption maximum (in CO): 489 nm

SMILES: CCCCCCCCOc1ccc(-c2c3c4n(c(-c5ccc(OCCCCCCCC)cc5)c3c3n2[B-](F)(F)[n+]2ccccc2N=3)[B-](F)(F)[n+]2ccccc2N=4)cc1
absorption maximum (in ClC(Cl)Cl): 638 nm

SMILES: CC1(C)c2ccccc2N(c2ccc3c(c2)c2ccccc2n2c4ccccc4nc32)c2ccccc21
absorption maximum (in Cc1ccccc1): 376 nm

SMILES: Cc1ccc(C(=O)NN2C3=C(CC4=C2CCCC4=O)C(=O)CCC3)cc1
absorption maximum (in C1CCOC1): 366 nm
absorption maximum (in CC#N): 368 nm
absorption maximum (in CC(C)=O): 366 nm
absorption maximum (in CCCCCO): 376 nm
absorption maximum (in CO): 374 nm
absorption maximum (in ClC(Cl)Cl): 370 nm
absorption maximum (in ClCCl): 366 nm
